According to US7074785B2, “Δ1-pyrrolines used as pesticides” (Bayer Cropscience AG, priority 2001, dated 2006):
Read-outs that look alike come from different tables or passages of the source.

Key:
[1] = logP determination by HPLC (reversed-phase C18, EEC Directive 79/831 Annex V.A8); assay type: physicochemical
Description: The logP values stated in the above tables and Preparation Examples are determined in accordance with EEC Directive 79/831 Annex V.A8 by HPLC (High Performance Liquid Chromatography) using a reversed-phase column (C 18). Temperature: 43° C.
In the acidic range at pH 2.3 the determination takes place using 0.1% aqueous phosphoric acid and acetonitrile as the mobile phases; linear gradient from 10% acetonitrile to 90% acetonitrile. Corresponding results are marked in the tables by “a)”
In the neutral range at pH 7.5 the determination takes place using 0.01 molar aqueous phosphate buffer solution and acetonitrile as the mobile phases; linear gradient from 10% acetonitrile to 90% acetonitrile. Corresponding results are marked in the tables by “b)”
Calibration is carried out using unbranched alkan-2-ones (having 3 to 16 carbon atoms), with known logP values (the logP values determined on the basis of the retention times using linear interpolation between two successive alkanones).

[2] = tested on: caterpillars of the cabbage moth (Plutella xylostella, sensitive strain); assay: Plutella test, sensitive strain; assay type: in vivo; details: 100 ppm, cabbage leaves dipped
Description: Plutella Test, Sensitive Strain
(§1) Solvent: 7 parts by weight of dimethylformamide

[3] = tested on: larvae of the mustard beetle (Phaedon cochleariae); assay: Phaedon larvae test; details: in Brassica oleracea, 168 h, read-out: Kill rate in % after 7 d, 100 ppm, cabbage leaves dipped, Phaedon cochleariae larvae
[4] = tested on: greenhouse red spider mite (Tetranychus urticae); assay: Tetranychus test (OP resistant/dip treatment); assay type: in vivo; details: 168 h, read-out: Kill rate in % after 7 d, 100 ppm, bean plants dipped, Tetranychus urticae OP-resistant
Description: Tetranychus Test (OP Resistant/Dip Treatment)
as §1
After the desired period of time, the effect in % is determined.

[5] = tested on: Heliothis virescens caterpillars; assay: Heliothis virescens test; assay type: in vivo; details: 100 ppm, soya bean shoots dipped
Description: as §1

[6] = tested on: caterpillars of the cabbage moth (Plutella xylostella), resistant strain; assay: Plutella test, resistant strain; assay type: in vivo; details: 100 ppm, cabbage leaves dipped
Description: Plutella Test, Resistant Strain
as §1

[7] = tested on: army worm (Spodoptera exigua) caterpillars; assay: Spodoptera exigua test; assay type: in vivo; details: 100 ppm, cabbage leaves dipped
Description: as §1

[8] = tested on: army worm (Spodoptera frugiperda) caterpillars; assay: Spodoptera frugiperda test; assay type: in vivo; details: in Brassica oleracea, 168 h, read-out: Kill rate in % after 7 d, 100 ppm, cabbage leaves dipped, Spodoptera frugiperda
[9] = tested on: Adult Musca domestica, Reichswald strain (OP, SP, carbamate-resistant); assay: Test with flies (Musca domestica); assay type: in vivo; details: filter paper disc
Description: Test with Flies (Musca domestica)
Test animals: Adult Musca domestica, Reichswald strain (OP, SP, carbamate-resistant)
(§2) Solvent: Dimethyl sulphoxide
20 mg of active compound are dissolved in 1 ml dimethyl sulphoxide. Lower concentrations are prepared by dilution with distilled water.
2 ml of this active compound preparation are pipetted on filter paper discs (Ø9.5 cm) in Petri dishes of corresponding dimensions. After the filter discs have been dried, 25 test animals are transferred to the Petri dishes, which are then covered.
After 1, 3, 5, 24 and 48 hours the activity of the active compound preparation is measured. 100% means that all flies have been killed, 0% means that no fly has been killed.

[10] = tested on: Boophilus microplus resistant/SP-resistant Parkhurst strain, adult satiated females; assay: Test with Boophilus microplus resistant/SP-resistant Parkhurst strain; assay type: in vivo; details: injected into abdomen, fertile egg deposition after 7 days
Description: Test with Boophilus microplus Resistant/SP-Resistant Parkhurst Strain
Test animals: Adult satiated females
as §2
20 mg of active compound are dissolved in 1 ml of dimethyl sulphoxide. Lower concentrations are prepared by dilution in the same solvent.
The test is carried out in 5 replications. 1 μl of the solutions is injected into the abdomen, and the animals are transferred to dishes and kept in a climate-controlled room. After 7 days, activity is checked by examination for deposition of fertile eggs. Eggs whose fertility is not externally visible are stored in glass tubes in a controlled-environment cabinet until the larvae have hatched. An activity of 100% denotes that none of the ticks has laid fertile eggs.

[11] = HPLC, acidic range pH 2.3, 0.1% aqueous phosphoric acid/acetonitrile; marked a), read-out: log P (pH 2.3)
[12] = HPLC, neutral range pH 7.5, 0.01 molar phosphate buffer/acetonitrile; marked b), read-out: log P (pH 7.5)

chromatographic logP ([1]; reversed-phase C18 HPLC column; HPLC, acidic range pH 2.3, 0.1% aqueous phosphoric acid/acetonitrile; marked a), read-out: log P (pH 2.3))	chromatographic logP ([1]; reversed-phase C18 HPLC column; HPLC, neutral range pH 7.5, 0.01 molar phosphate buffer/acetonitrile; marked b), read-out: log P (pH 7.5))	SMILES	chromatographic logP [1, 11]	chromatographic logP [1, 12]	Kill rate in % after 7 d [2] [%]	pest or weed control at 100 ppm [3] [%]	pest or weed control at 100 ppm [4] [%]	Kill rate in % after 7 d [5] [%]	Kill rate in % after 7 d [6] [%]	Kill rate in % after 7 d [7] [%]	pest or weed control at 100 ppm [8] [%]	Activity/kill in % ([9]; 20 ppm) [%]	Activity/kill in % ([9]; 100 ppm) [%]	Activity/kill in % ([10]; 4 μg/animal) [%]	Activity/kill in % ([10]; 20 μg/animal) [%]	Activity/kill in % ([10]; 100 μg/animal) [%]
		CCOC(=O)Nc1ccc(-c2ccc(C3CCC(c4c(F)cccc4F)=N3)cc2)cc1 (stereo not drawn) [Compound 6]	2.62	3.85	100	≥ 85	≥ 85	100	100	100	≥ 95					
1.71	2.78	CNC(=O)Nc1ccc(-c2ccc(C3CCC(c4c(F)cccc4F)=N3)cc2)cc1 (stereo not drawn) [Compound 13]										0	30			
		O=C(Nc1ccc(-c2ccc(C3CCC(c4c(F)cccc4F)=N3)cc2)cc1)OCc1cccs1 (stereo not drawn) [Compound 27]	3.28	4.36		≥ 85	≥ 85				≥ 95					
		CCCOC(=O)Nc1ccc(-c2ccc(C3CCC(c4c(F)cccc4F)=N3)cc2)cc1 (stereo not drawn) [Compound 2, n-propyl 4′-[5-(2,6-difluorophenyl)-3,4-dihydro-2H-pyrrol-2-yl]-1,1′-biphenyl-4-ylcarbamate]	3.02	4.24		≥ 85	≥ 85				≥ 95					
		COC(=O)Nc1ccc(-c2ccc(C3CCC(c4c(F)cccc4F)=N3)cc2)cc1 (stereo not drawn) [Compound 1, methyl 4′-[5-(2,6-difluorophenyl)-3,4-dihydro-2H-pyrrol-2-yl]-1,1′-biphenyl-4-ylcarbamate]	2.31	3.52		≥ 85	≥ 85				≥ 95					
		CC(C)COC(=O)Nc1ccc(-c2ccc(C3CCC(c4c(F)cccc4F)=N3)cc2)cc1 (stereo not drawn) [Compound 8]	3.32	4.54	100			100	100	100				0	40	80
		CC(C)OC(=O)Nc1ccc(-c2ccc(C3CCC(c4c(F)cccc4F)=N3)cc2)cc1 (stereo not drawn) [Compound 7]	3	4.19	100	≥ 85	≥ 85	100	100	100	≥ 95				0	40
